The source of these data is patent US10604508B2, “2,3-dihydro-isoindole-1-one derivative as BTK kinase suppressant, and pharmaceutical composition including same” (CrystalGenomics, Inc., priority 2012, dated 2020).

Common to all, as to assay type: cell-based
One experiment relates to RBL-2H3 cell line. Briefly: Histamine Release Assay. The settings on record: Rattus norvegicus; RBL-2H3 cells, 500 ng/mL monoclonal anti-DNP, 24 hours. Here is the method:
Histamine release assays were performed with reference to the method disclosed in the article, FEBS Lett. 2002 Sep. 11; 527 (1-3):274-8. Silencing of Bruton's tyrosine kinase (Btk) using short interfering RNA duplexes (siRNA). Heinonen J E, Smith C I, Nore B F, and the amount of histamine was measured by an enzyme immunoassay.
The RBL-2H3 cell line, purchased from KCLB (Korean Cell Line Bank), was grown in a DMEM medium supplemented with 10% (v/v) FBS at 37° C. in a 5% CO2 incubator for 72 hours. The cells were transferred into 96-well plates at a density of 10,000 cells/well, and cultured at 37° C. in the 5% CO2 incubator for 24 hours.
The cells were treated with 500 ng/mL of monoclonal anti-DNP (sigma) and each of 0.001, 0.01, 0.1, 1.0 and 10 μM of the test compound in 100% (v/v) dimethyl sulfoxide (DMSO). The cells were treated only with 100% (v/v) DMSO, which was used as a control. The treated samples were cultured at 37° C. in the 5% CO2 incubator for 24 hours. Then, histamine release was measured according to manufacturer's instructions (EIA histamine kit, immunotech). Each well was treated with 50 μL of a histamine release buffer, and allowed to react for 30 minutes at 37° C. Upon completion of the reaction, 100 μL of a sample from each well was transferred to a new plate, and then was thoroughly mixed with 25 μL of an acetylation buffer and 25 μL of an acetylation reagent. 50 μL of the acetylation sample thus prepared was transferred to a plate coated with an antibody, mixed with 200 μL of histamine alkaline phosphatase conjugate, and then allowed to react for 18 hours at 4° C. Once the reaction is completed, the sample from the plate is removed, and then 200 μL of a wash buffer was added to wash three times. 200 μL of a substrate was added thereto, and the mixture was allowed to react at room temperature for 30 minutes. The reaction was terminated by adding 50 μL of a stop solution, and absorbance of the samples was read at 406 nm using Benchmark Plus (Biorad). The histamine release level was calculated based on absorbance of the test group against that of the control group. The EC50 (μM) values, in which test compounds reduce the histamine release by 50%, were determined by using Microsoft Excel graphic program.

Another experiment relates to Jeko-1. In words: MTS anti-proliferation assay, Jeko-1. Conditions: human lymphoma cell line, 48 hours. How it is done: (§1) MTS assay was performed to evaluate the anti-proliferative activities of the inventive compounds via inhibition on extracellular signal-regulated kinase (Barltrop, J. A. et al., (1991) 5-(3-carboxymethoxyphenyl)-2-(4,5-dimethylthiazoly)-3-(4-sulfophenyl) tetrazolium, inner salt (MTS) and related analog of 3-(4,5-dimethylthiazolyl)-2,5,-diphenyltetrazolium bromide (MTT) reducing to purple water soluble formazans as cell-viability indicators. Bioorg. Med Chem. Lett. 1, 611-4; Cory, A. H. et al., (1991) Use of an aqueous soluble tertrazolium/formazan assay for cell growth assays in culture. Cancer Comm. 3, 207-12).
(§2) Human lymphoma cell lines Jeko-1 (ATCC), Mino (ATCC), H9 (Korean Cell Line Bank) and SR (ATCC), and human leukemia cell lines MV4-11 (ATCC), Molm-13 (DSMZ) and Ku812 (ATCC) were used for the test according to the procedure shown below.
(§3) Each of Jeko-1, Mino, H9, SR, MV4-11, Molm-13 and Ku812 cells were transferred into 96-well plates containing RPMI1640 medium (GIBCO, Invitrogen) supplemented with 10% FBS at a density of 10,000 cells/well, and then incubated for 24 hours under conditions of 37° C. and 5% CO2. The wells were treated with each of 0.2, 1, 5, 25 and 100 μM, of the test compounds. The well was treated with DMSO in an amount of 0.08 wt %, which is the same amount as in the test compounds, which was used as a control. The resulting cells were incubated for 48 hours.
(§4) MTS assays are commercially available and include the Promega CellTiter 96® Aqueous Non-Radioactive Cell Proliferation Assay. MTS assays were performed in order to evaluate cell viability of the test compounds. 20 μL of a mixed solution of 3-(4,5-dimethylthiazol-2-yl)-5-(3-carboxymethoxyphenyl)-2-(4-sulfophenyl)-2H-tetrazolium, inner salt (“MTS”) and phenazine methosulfate (PMS) was added to each well, and then incubated for 2 hours at 37° C. Then absorbance of the samples was read at 490 nm. The anti-proliferation activity level was calculated based on absorbance of the test compounds against that of the untreated control group. The EC50 (μM) values, in which test compounds reduce the growth of cancer cells by 50% were calculated.
A general note: Tetrazolium assays rely on reduction of a dye to a coloured formazan, in cell work by metabolically active cells.

The test system of another experiment is H9. In words: MTS anti-proliferation assay, H9. The settings on record: human lymphoma cell line, 48 hours. Here is the method:
as §1, §2, §3, §4

For the next experiment, the system named is SR. Briefly: MTS anti-proliferation assay, SR. Conditions: human lymphoma cell line, 48 hours. How it is done: as §1, §2, §3, §4
A further experiment deals with Mino. Briefly: MTS anti-proliferation assay, Mino. The settings on record: human lymphoma cell line, 48 hours. Here is the method:
as §1
(§5) Human lymphoma cell lines Jeko-1 (ATCC), Mino (ATCC), H9 (Korean Cell Line Bank) and SR (ATCC), and human leukemia cell lines MV4-11 (ATCC), Molm-13 (DSMZ) and Ku812 (ATCC) were used for the test according to the procedure shown below. […]
(§6) MTS assays are commercially available and include the Promega CellTiter 96® Aqueous Non-Radioactive Cell Proliferation Assay. […] Then absorbance of the samples was read at 490 nm. The anti-proliferation activity level was calculated based on absorbance of the test compounds against that of the untreated control group. […]

The test system of a further experiment is MV4-11. In words: MTS anti-proliferation assay, MV4-11. Conditions: human leukemia cell line, 48 hours. Here is the method:
as §1, §5, §6

Another experiment relates to Molm-13. Briefly: MTS anti-proliferation assay, Molm-13. Conditions: human leukemia cell line, 48 hours. How it is done: as §1, §5, §6
The next experiment has as its system Ku812. In words: MTS anti-proliferation assay, Ku812. Conditions: human leukemia cell line, 48 hours. How it is done:
as §1, §5, §6

On to `Cc1cnc(-c2ccc(-c3ccc(NC(=O)Nc4c(F)ccc(F)c4F)cc3F)c3c2C(=O)NC3)[nH]1` [Compound 12, 1-{3-fluoro-4-[7-(5-methyl-1H-imidazol-2-yl)-1-oxo-2,3-dihydro-1H-isoindol-4-yl]-phenyl}-3-(2,3,6-trifluoro-phenyl)-urea], for which the EC50 (usually the midpoint of the concentration-response curve) in the experiment on RBL-2H3 cell line turned out to be 300 nM; in the experiment on Jeko-1, 150 nM; in the experiment on H9, 40 nM; in the experiment on SR it was 20 nM.

On to `Cc1cnc(-c2ccc(-c3ccc(NC(=O)Nc4c(F)c(F)c(F)c(F)c4F)cc3F)c3c2C(=O)NC3)[nH]1` [Compound 9, 1-{3-fluoro-4-[7-(5-methyl-1H-imidazol-2-yl)-1-oxo-2,3-dihydro-1H-isoindol-4-yl]-phenyl}-3-pentafluorophenyl-urea], for which the EC50 with RBL-2H3 cell line amounted to 350 nM; with Jeko-1 it was 30 nM; in the experiment with H9, 6 nM; with SR it was 18 nM.

Turning to `Cc1cnc(-c2ccc(-c3ccc(NC(=O)Nc4c(F)ccc(F)c4Cl)cc3F)c3c2C(=O)NC3)[nH]1` [Compound 18, 1-(2-chloro-3,6-difluorophenyl)-3-(3-fluoro-4-(7-(5-methyl-1H-imidazol-2-yl)-1-oxoisoindolin-4-yl)phenyl)urea], the EC50 worked out at 300 nM with RBL-2H3 cell line, 30 nM with Jeko-1, 20 nM in the experiment with H9 and 20 nM with SR.

With `Cc1cnc(-c2ccc(-c3ccc(NC(=O)Nc4ccc(C#N)c(F)c4)cc3F)c3c2C(=O)NC3)[nH]1` [Compound 15, 1-(4-cyano-3-fluorophenyl)-3-(3-fluoro-4-(7-(5-methyl-1H-imidazol-2-yl)-1-oxoisoindolin-4-yl)phenyl)urea], the EC50 with RBL-2H3 cell line was determined as 220 nM; with Jeko-1, 100 nM; with H9, 190 nM; in the experiment on SR it was 150 nM.

As to `Cc1cnc(-c2ccc(-c3ccc(NC(=O)Nc4c(F)c(F)cc(F)c4F)cc3F)c3c2C(=O)NC3)[nH]1` [Compound 20, 1-{3-fluoro-4-[7-(5-methyl-1H-imidazol-2-yl)-1-oxo-2,3-dihydro-1H-isoindol-4-yl]-phenyl}-3-(2,3,5,6-tetrafluoro-phenyl)-urea], the EC50 in the experiment with RBL-2H3 cell line amounted to 300 nM; with Jeko-1, 30 nM; in the experiment with H9, 10 nM; with SR it was 17 nM.

Turning to `Cc1cnc(-c2ccc(-c3ccc(NC(=O)Nc4ccc(F)c(F)c4)cc3F)c3c2C(=O)NC3)[nH]1` [Compound 14, 1-(3,4-difluoro-phenyl)-3-{3-fluoro-4-[7-(5-methyl-1H-imidazol-2-yl)-1-oxo-2,3-dihydro-1H-isoindol-4-yl]-phenyl}-urea], the EC50 in the experiment with RBL-2H3 cell line came to 200 nM; in the experiment on Jeko-1 it was 30 nM; in the experiment on H9, 20 nM; in the experiment with SR, 18 nM.

Consider `Cc1cnc(-c2ccc(-c3ccc(NC(=O)Nc4c(F)ccc(Cl)c4F)cc3F)c3c2C(=O)NC3)[nH]1` [Compound 17, 1-(3-chloro-2,6-difluorophenyl)-3-(3-fluoro-4-(7-(5-methyl-1H-imidazol-2-yl)-1-oxoisoindolin-4-yl)phenyl)urea], for which the EC50 with RBL-2H3 cell line amounted to 40 nM; in the experiment with Jeko-1 it was 30 nM; in the experiment with Mino it was 18 nM; in the experiment with H9 it was 20 nM; in the experiment on SR, 25 nM; in the experiment with MV4-11 it was 4 nM. The EC50 in the experiment with Molm-13 was found to be 12 nM; with Ku812 it was 190 nM.

Consider `Cc1cnc(-c2ccc(-c3ccc(NC(=O)Nc4c(F)cccc4F)cc3F)c3c2C(=O)NC3)[nH]1` [Compound 3, 1-(2,6-difluoro-phenyl)-3-{3-fluoro-4-[7-(5-methyl-1H-imidazol-2-yl)-1-oxo-2,3-dihydro-1H-isoindol-4-yl]-phenyl}-urea], for which the EC50 amounted to 450 nM in the experiment on RBL-2H3 cell line, 100 nM with Jeko-1, 30 nM with H9 and 100 nM in the experiment on SR.

With `Cc1cnc(-c2ccc(-c3ccc(NC(=O)Nc4c(F)cc(F)cc4F)cc3F)c3c2C(=O)NC3)[nH]1` [Compound 7, 1-{3-fluoro-4-[7-(5-methyl-1H-imidazol-2-yl)-1-oxo-2,3-dihydro-1H-isoindol-4-yl]-phenyl}-3-(2,4,6-trifluoro-phenyl)-urea], the EC50 was 220 nM in the experiment with RBL-2H3 cell line; 30 nM with Jeko-1; 18 nM with Mino; 7 nM in the experiment on H9; 15 nM in the experiment on SR; 2 nM in the experiment on MV4-11. In addition, the EC50 with Molm-13 amounted to 3 nM; with Ku812, 600 nM.

As to `Cc1cnc(-c2ccc(-c3ccc(NC(=O)Nc4c(F)cccc4Cl)cc3F)c3c2C(=O)NC3)[nH]1` [Compound 4, 1-(2-chloro-6-fluoro-phenyl)-3-{3-fluoro-4-[7-(5-methyl-1H-imidazol-2-yl)-1-oxo-2,3-dihydro-1H-isoindol-4-yl]-phenyl}-urea], the EC50 was 250 nM in the experiment with RBL-2H3 cell line, 100 nM in the experiment with Jeko-1, 30 nM with H9 and 30 nM with SR.

`Cc1cnc(-c2ccc(-c3ccc(NC(=O)Nc4c(F)cc(Cl)cc4F)cc3F)c3c2C(=O)NC3)[nH]1` [Compound 19, 1-(4-chloro-2,6-difluoro-phenyl)-3-{3-fluoro-4-[7-(5-methyl-1H-imidazol-2-yl)-1-oxo-2,3-dihydro-1H-isoindol-4-yl]-phenyl}-urea]: the EC50 came to 300 nM in the experiment on RBL-2H3 cell line, 30 nM with Jeko-1, 40 nM in the experiment with H9 and 20 nM in the experiment on SR.
